Assay results from ChEMBL document CHEMBL2062395, “Avicholic Acid: A Lead Compound from Birds on the Route to Potent TGR5 Modulators” (ACS Med Chem Lett, 2012).
pEC50: −log10 of the molar value.

Tests used:
[1] = molecular target: T1, G-protein coupled bile acid receptor 1 (Homo sapiens, UniProt Q8TDU6); test: Agonist activity at TGR5 expressed in NCI-H716 cells assessed as cAMP level after 60 mins by FRET analysis; format: functional, cell-based
T1 sequence (Q8TDU6 whole entry): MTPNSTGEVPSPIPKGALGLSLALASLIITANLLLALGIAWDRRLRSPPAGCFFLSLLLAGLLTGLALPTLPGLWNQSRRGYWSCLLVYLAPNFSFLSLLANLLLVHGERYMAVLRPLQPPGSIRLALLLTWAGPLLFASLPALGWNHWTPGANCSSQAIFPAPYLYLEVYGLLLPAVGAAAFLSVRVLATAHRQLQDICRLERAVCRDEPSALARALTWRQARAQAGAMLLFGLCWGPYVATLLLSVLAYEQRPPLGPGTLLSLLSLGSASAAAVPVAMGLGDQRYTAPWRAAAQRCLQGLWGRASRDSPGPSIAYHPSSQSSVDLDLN

[2] = molecular target: T2, Bile acid receptor (Homo sapiens, UniProt Q96RI1); test: Agonist activity at GST-tagged FXR-LBD using biotinylated-SRC-1 peptide as substrate preincubated with compound for 30 mins measured after 4 hrs; format: functional
T2 sequence (Q96RI1 whole entry): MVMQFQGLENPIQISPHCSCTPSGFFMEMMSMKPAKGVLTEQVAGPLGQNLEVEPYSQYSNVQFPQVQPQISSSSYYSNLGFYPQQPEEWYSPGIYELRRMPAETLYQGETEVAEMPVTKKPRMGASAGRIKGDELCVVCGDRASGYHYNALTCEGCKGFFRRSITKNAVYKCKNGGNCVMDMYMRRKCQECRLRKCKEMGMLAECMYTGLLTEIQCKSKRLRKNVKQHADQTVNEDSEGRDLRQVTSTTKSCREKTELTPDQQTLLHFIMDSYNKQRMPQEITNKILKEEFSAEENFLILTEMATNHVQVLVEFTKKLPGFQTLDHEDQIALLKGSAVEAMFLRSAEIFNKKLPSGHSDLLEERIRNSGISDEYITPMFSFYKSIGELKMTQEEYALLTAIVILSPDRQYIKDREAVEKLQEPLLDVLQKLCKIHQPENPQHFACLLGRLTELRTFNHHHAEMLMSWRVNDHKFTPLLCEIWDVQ

[3] = molecular target: Albumin (Homo sapiens, UniProt P02768); test: Binding affinity to albumin by equilibrium dialysis; format: ADME; design: concentration or dose not given beside the values; conditions: isolated protein
[4] = system: Liver; test: Drug metabolism in mouse liver assessed as taurine conjugate formation; format: ADME, tissue-based
[5] = Critical micelle concentration of the compound in 0.15 M NaCl water solution; format: physicochemical; conditions: buffer
[6] = Aqueous solubility of the compound in 0.1 M HCl water at […] by HPLC-ES-MS/MS; format: physicochemical
[7] = 1-Octanol/water partition coefficient, log P of the compound by conventional shake-flask method; format: physicochemical
[8] = 1-octanol/water, read-out: logP

Chain of Albumin (P02768 whole entry): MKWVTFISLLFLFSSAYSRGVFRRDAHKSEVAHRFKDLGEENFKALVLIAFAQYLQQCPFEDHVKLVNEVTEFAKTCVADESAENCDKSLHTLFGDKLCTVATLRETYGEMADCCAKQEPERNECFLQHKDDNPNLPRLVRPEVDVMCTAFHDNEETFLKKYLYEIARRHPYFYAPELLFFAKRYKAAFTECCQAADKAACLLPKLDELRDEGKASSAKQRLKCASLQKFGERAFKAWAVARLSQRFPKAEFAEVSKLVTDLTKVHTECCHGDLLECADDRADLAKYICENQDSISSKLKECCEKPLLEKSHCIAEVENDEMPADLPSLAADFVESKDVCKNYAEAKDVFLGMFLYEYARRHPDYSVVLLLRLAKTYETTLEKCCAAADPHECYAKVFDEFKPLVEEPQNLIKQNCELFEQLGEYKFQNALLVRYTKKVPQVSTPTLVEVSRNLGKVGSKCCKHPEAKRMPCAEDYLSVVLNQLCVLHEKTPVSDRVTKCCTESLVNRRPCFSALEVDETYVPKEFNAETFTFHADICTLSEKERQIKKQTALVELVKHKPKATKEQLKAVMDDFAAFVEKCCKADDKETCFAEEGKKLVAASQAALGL

SMILES	pEC50 [1]	pEC50 [2]	Activity [3] [%]	Drug metabolism [4]	CMC [5] [mM]	solubility [6] [µM]	logP [7, 8]	logP ([7]; octanol/water)
C[C@H](CCC(=O)O)[C@H]1[C@@H](O)C[C@H]2[C@@H]3[C@H](O)C[C@@H]4C[C@H](O)CC[C@]4(C)[C@H]3CC[C@]12C	4.60	4.26						
CC[C@H]1[C@@H](O)[C@@H]2[C@H](CC[C@]3(C)[C@@H]([C@H](C)CCC(=O)O)[C@H](O)C[C@@H]23)[C@@]2(C)CC[C@@H](O)C[C@@H]12	4.06	4.66						
CC[C@H]1[C@@H](O)[C@@H]2[C@H](CC[C@]3(C)[C@@H]([C@H](C)CCC(=O)[O-])[C@@H](O)C[C@@H]23)[C@@]2(C)CC[C@@H](O)C[C@@H]12.[Na+]	6.19	4.94	83	Active	5.9	120	1.6	
CC[C@H]1[C@@H](O)[C@@H]2[C@H](C[C@H](O)[C@]3(C)[C@@H]([C@H](C)C[C@H](C)C(=O)O)CC[C@@H]23)[C@@]2(C)CC[C@@H](O)C[C@@H]12			62		2		1.4	
C[C@H](CCC(=O)[O-])[C@H]1[C@H](O)C[C@H]2[C@@H]3[C@H](O)C[C@@H]4C[C@H](O)CC[C@]4(C)[C@H]3CC[C@]12C.[Na+] [AVICHOLIC ACID SODIUM SALT]	3.80	< 4.00	58		10	188	1.1	
C[C@H](CCC(=O)O)[C@H]1CC[C@H]2[C@@H]3[C@H](O)C[C@@H]4C[C@H](O)CC[C@]4(C)[C@H]3CC[C@]12C [CHENODIOL]			93		3			2.2
C[C@H](CCC(=O)O)[C@H]1CC[C@H]2[C@@H]3[C@H](O)C[C@@H]4C[C@H](O)CC[C@]4(C)[C@H]3C[C@H](O)[C@]12C [CHOLIC ACID]			50		9.2			
